Source: the NIST ThermoML archive (doi:10.1016/j.jct.2011.12.025)

Assay: xn = mol fraction of the nth substance listed
Details: 296.15 K, 101 kPa, Liquid, WTW LF538 Conductivity Meter

CCCCCCn1cc[n+](C)c1.F[B-](F)(F)F [1-hexyl-3-methylimidazolium tetrafluoroborate] + O
Details	electrical conductivity [S/m]
x1 = 0.000466	0.231
x1 = 0.000711	0.329
x1 = 0.000949	0.419
x1 = 0.001193	0.505
x1 = 0.001435	0.584
x1 = 0.001677	0.663
x1 = 0.001925	0.74
x1 = 0.002172	0.812
x1 = 0.002421	0.875
x1 = 0.002671	0.949
x1 = 0.002925	1.014
x1 = 0.003177	1.07
x1 = 0.003433	1.126
x1 = 0.003948	1.25
x1 = 0.004469	1.36
x1 = 0.005	1.447

CCCCCCCCCCn1cc[n+](C)c1.F[B-](F)(F)F [1-decyl-3-methylimidazolium tetrafluoroborate] + O
Details	electrical conductivity [S/m]
x1 = 2.5e-05	0.018
x1 = 3.8e-05	0.026
x1 = 5.1e-05	0.034
x1 = 6.4e-05	0.042
x1 = 7.6e-05	0.049
x1 = 8.9e-05	0.056
x1 = 0.000102	0.063
x1 = 0.000115	0.07
x1 = 0.000128	0.076
x1 = 0.000139	0.082
x1 = 0.000153	0.089
x1 = 0.000166	0.096
x1 = 0.000179	0.101
x1 = 0.000204	0.113
x1 = 0.00023	0.125
x1 = 0.000256	0.137

CCCCCCCC[n+]1ccn(C)c1.F[B-](F)(F)F [1-methyl-3-octylimidazolium tetrafluoroborate] + O
Details	electrical conductivity [S/m]
x1 = 0.000109	0.067
x1 = 0.000164	0.095
x1 = 0.000219	0.123
x1 = 0.000274	0.149
x1 = 0.000326	0.172
x1 = 0.000384	0.196
x1 = 0.000439	0.22
x1 = 0.000494	0.24
x1 = 0.000549	0.262
x1 = 0.000605	0.284
x1 = 0.00066	0.305
x1 = 0.000715	0.326
x1 = 0.000772	0.346
x1 = 0.000883	0.386
x1 = 0.000995	0.424
x1 = 0.001107	0.463
